{"source": "patent US11053204B2", "about": "“Pyrimidinyloxy benzene derivatives as herbicides” (FMC Corporation, priority 2015, dated 2021)", "type_in_all_cases": "in vivo", "key": {"[1]": {"tested_on": "galium (catchweed bedstraw, Galium aparine)", "assay": "Test C preemergence, plant response rating"}, "[2]": {"tested_on": "pigweed (Amaranthus retroflexus)", "assay": "Test C preemergence, plant response rating", "conditions": "Preemergence"}, "[3]": {"tested_on": "barnyardgrass (Echinochloa crus-galli)", "assay": "Test C preemergence, plant response rating", "conditions": "Echinochloa crus-galli, pre-emergence, Preemergence"}, "[4]": {"tested_on": "barnyardgrass (Echinochloa crus-galli)", "assay": "Test C postemergence, plant response rating", "conditions": "Echinochloa crus-galli, post-emergence", "outline": "(§1)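 Visual injury score, 0 = no effect, 100 = complete control, assigned against untreated controls after 13 to 15 d in the greenhouse. Compounds were applied in a surfactant-containing non-phytotoxic solvent mix, preemergence to seeded loam/sand or silt loam soil, or postemergence to 1- to 4-leaf plants (2 to 18 cm).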"}, "[5]": {"tested_on": "blackgrass (Alopecurus myosuroides)", "assay": "Test C postemergence, plant response rating", "conditions": "Alopecurus myosuroides, post-emergence", "outline": "as §1"}, "[6]": {"tested_on": "chickweed (common chickweed, Stellaria media)", "assay": "Test C postemergence, plant response rating", "conditions": "Stellaria media, post-emergence", "outline": "as §1"}, "[7]": {"tested_on": "lambsquarters (Chenopodium album)", "assay": "Test C postemergence, plant response rating", "conditions": "Chenopodium album, post-emergence", "outline": "as §1"}, "[8]": {"tested_on": "morningglory (Ipomoea coccinea)", "assay": "Test C postemergence, plant response rating", "conditions": "Ipomoea, post-emergence", "outline": "as §1"}, "[9]": {"tested_on": "nutsedge, yellow (yellow nutsedge, Cyperus esculentus)", "assay": "Test C postemergence, plant response rating", "conditions": "Cyperus, post-emergence", "outline": "as §1"}, "[10]": {"tested_on": "oat, wild (wild oat Avena fatua)", "assay": "Test C postemergence, plant response rating", "conditions": "Avena fatua, post-emergence", "outline": "as §1"}, "[11]": {"tested_on": "ragweed (common ragweed, Ambrosia elatior)", "assay": "Test C postemergence, plant response rating", "conditions": "Ambrosia artemisiifolia, post-emergence", "outline": "as §1"}, "[12]": {"tested_on": "ryegrass, Italian (Italian ryegrass, Lolium multiflorum)", "assay": "Test C postemergence, plant response rating", "conditions": "Lolium multiflorum, post-emergence", "outline": "as §1"}, "[13]": {"tested_on": "velvetleaf (Abutilon theophrasti)", "assay": "Test C postemergence, plant response rating", "conditions": "Abutilon theophrasti, post-emergence", "outline": "as §1"}, "[14]": {"tested_on": "wheat (winter wheat, Triticum aestivum)", "assay": "Test C postemergence, plant response rating", "conditions": "Triticum aestivum, post-emergence", "outline": "as §1"}, "[15]": {"conditions": "62 g ai/ha, scale 0 to 100 (0 no effect, 100 complete control)"}, "[16]": {"conditions": "125 g ai/ha, scale 0 to 100 (0 no effect, 100 complete control)"}}}
{"smiles": "O=C(OCCCC(F)(F)F)c1c(Br)cccc1Oc1ncc(Cl)cn1", "note": "[Compound 20, 4,4,4-trifluorobutyl 2-bromo-6-[(5-chloro-2-pyrimidinyl)oxy]benzoate]", "values": [{"measurement": "Plant response rating, Galium", "setting": "[1]; 16 g ai/ha, scale 0 to 100", "result": 10}, {"measurement": "Plant response rating, Galium", "setting": "[1]; 31 g ai/ha, scale 0 to 100", "result": 0}, {"measurement": "Plant response rating, Galium", "setting": "[1]; 62 g ai/ha, scale of 0 to 100", "result": 80}, {"measurement": "Plant response rating, Galium", "setting": "[1]; 125 g ai/ha, scale of 0 to 100", "result": 95}, {"measurement": "Plant response rating, Pigweed", "setting": "[2]; 125 g ai/ha, scale of 0 to 100", "result": 100}, {"measurement": "Plant response rating, Pigweed", "setting": "[2]; 16 g ai/ha, scale 0 to 100", "result": 55}, {"measurement": "Plant response rating, Pigweed", "setting": "[2]; 31 g ai/ha, scale 0 to 100", "result": 55}, {"measurement": "Plant response rating, Pigweed", "setting": "[2]; 62 g ai/ha, scale 0 to 100", "result": 100}, {"measurement": "pest or weed control at 62 g/ha", "setting": "[3]; 62 g ai/ha, scale of 0 to 100", "result": 30, "unit": "%"}, {"measurement": "pest or weed control at 125 g/ha", "setting": "[3]; 125 g ai/ha, scale of 0 to 100", "result": 85, "unit": "%"}, {"measurement": "pest or weed control at 16 g/ha", "setting": "[3]; 16 g ai/ha, scale 0 to 100", "result": 0, "unit": "%"}, {"measurement": "pest or weed control at 31 g/ha", "setting": "[3]; 31 g ai/ha, scale 0 to 100", "result": 5, "unit": "%"}, {"measurement": "pest or weed control at 16 g/ha", "setting": "[4]; 16 g ai/ha, scale 0 to 100", "result": 10, "unit": "%"}, {"measurement": "pest or weed control at 31 g/ha", "setting": "[4]; 31 g ai/ha, scale 0 to 100", "result": 10, "unit": "%"}, {"measurement": "pest or weed control at 62 g/ha", "setting": "[4]; [15]", "result": 10, "unit": "%"}, {"measurement": "pest or weed control at 125 g/ha", "setting": "[4]; [16]", "result": 20, "unit": "%"}, {"measurement": "pest or weed control at 16 g/ha", "setting": "[5]; 16 g ai/ha, scale 0 to 100", "result": 5, "unit": "%"}, {"measurement": "pest or weed control at 31 g/ha", "setting": "[5]; 31 g ai/ha, scale 0 to 100", "result": 5, "unit": "%"}, {"measurement": "pest or weed control at 62 g/ha", "setting": "[5]; [15]", "result": 5, "unit": "%"}, {"measurement": "pest or weed control at 125 g/ha", "setting": "[5]; [16]", "result": 10, "unit": "%"}, {"measurement": "pest or weed control at 16 g/ha", "setting": "[6]; 16 g ai/ha, scale 0 to 100", "result": 60, "unit": "%"}, {"measurement": "pest or weed control at 31 g/ha", "setting": "[6]; 31 g ai/ha, scale 0 to 100", "result": 60, "unit": "%"}, {"measurement": "pest or weed control at 62 g/ha", "setting": "[6]; [15]", "result": 65, "unit": "%"}, {"measurement": "pest or weed control at 125 g/ha", "setting": "[6]; [16]", "result": 75, "unit": "%"}, {"measurement": "pest or weed control at 16 g/ha", "setting": "[7]; 16 g ai/ha, scale 0 to 100", "result": 65, "unit": "%"}, {"measurement": "pest or weed control at 31 g/ha", "setting": "[7]; 31 g ai/ha, scale 0 to 100", "result": 80, "unit": "%"}, {"measurement": "pest or weed control at 62 g/ha", "setting": "[7]; [15]", "result": 70, "unit": "%"}, {"measurement": "pest or weed control at 125 g/ha", "setting": "[7]; [16]", "result": 85, "unit": "%"}, {"measurement": "pest or weed control at 16 g/ha", "setting": "[8]; 16 g ai/ha, scale 0 to 100", "result": 75, "unit": "%"}, {"measurement": "pest or weed control at 31 g/ha", "setting": "[8]; 31 g ai/ha, scale 0 to 100", "result": 65, "unit": "%"}, {"measurement": "pest or weed control at 62 g/ha", "setting": "[8]; [15]", "result": 70, "unit": "%"}, {"measurement": "pest or weed control at 125 g/ha", "setting": "[8]; [16]", "result": 70, "unit": "%"}, {"measurement": "pest or weed control at 16 g/ha", "setting": "[9]; 16 g ai/ha, scale 0 to 100", "result": 0, "unit": "%"}, {"measurement": "pest or weed control at 31 g/ha", "setting": "[9]; 31 g ai/ha, scale 0 to 100", "result": 5, "unit": "%"}, {"measurement": "pest or weed control at 62 g/ha", "setting": "[9]; [15]", "result": 5, "unit": "%"}, {"measurement": "pest or weed control at 125 g/ha", "setting": "[9]; [16]", "result": 10, "unit": "%"}, {"measurement": "pest or weed control at 16 g/ha", "setting": "[10]; 16 g ai/ha, scale 0 to 100", "result": 0, "unit": "%"}, {"measurement": "pest or weed control at 31 g/ha", "setting": "[10]; 31 g ai/ha, scale 0 to 100", "result": 0, "unit": "%"}, {"measurement": "pest or weed control at 62 g/ha", "setting": "[10]; [15]", "result": 5, "unit": "%"}, {"measurement": "pest or weed control at 125 g/ha", "setting": "[10]; [16]", "result": 5, "unit": "%"}, {"measurement": "pest or weed control at 16 g/ha", "setting": "[11]; 16 g ai/ha, scale 0 to 100", "result": 30, "unit": "%"}, {"measurement": "pest or weed control at 31 g/ha", "setting": "[11]; 31 g ai/ha, scale 0 to 100", "result": 50, "unit": "%"}, {"measurement": "pest or weed control at 62 g/ha", "setting": "[11]; [15]", "result": 55, "unit": "%"}, {"measurement": "pest or weed control at 125 g/ha", "setting": "[11]; [16]", "result": 60, "unit": "%"}, {"measurement": "pest or weed control at 16 g/ha", "setting": "[12]; 16 g ai/ha, scale 0 to 100", "result": 0, "unit": "%"}, {"measurement": "pest or weed control at 31 g/ha", "setting": "[12]; 31 g ai/ha, scale 0 to 100", "result": 5, "unit": "%"}, {"measurement": "pest or weed control at 62 g/ha", "setting": "[12]; [15]", "result": 10, "unit": "%"}, {"measurement": "pest or weed control at 125 g/ha", "setting": "[12]; [16]", "result": 5, "unit": "%"}, {"measurement": "pest or weed control at 16 g/ha", "setting": "[13]; 16 g ai/ha, scale 0 to 100", "result": 20, "unit": "%"}, {"measurement": "pest or weed control at 31 g/ha", "setting": "[13]; 31 g ai/ha, scale 0 to 100", "result": 50, "unit": "%"}, {"measurement": "pest or weed control at 62 g/ha", "setting": "[13]; 62 g ai/ha, scale 0 to 100 (0 no effect, 100 complete control), read-out: Velvetleaf plant response rating", "result": 40, "unit": "%"}, {"measurement": "pest or weed control at 125 g/ha", "setting": "[13]; [16]", "result": 70, "unit": "%"}, {"measurement": "plant injury at 16 g/ha", "setting": "[14]; 16 g ai/ha, scale 0 to 100", "result": 0, "unit": "%"}, {"measurement": "plant injury at 31 g/ha", "setting": "[14]; 31 g ai/ha, scale 0 to 100", "result": 0, "unit": "%"}, {"measurement": "plant injury at 62 g/ha", "setting": "[14]; 62 g ai/ha, scale 0 to 100 (0 no effect, 100 complete control), read-out: Wheat plant response rating", "result": 5, "unit": "%"}, {"measurement": "plant injury at 125 g/ha", "setting": "[14]; [16]", "result": 5, "unit": "%"}]}
